In US8624034B2, “Fluoro-pyridinone derivatives useful as antibacterial agents” (Pfizer Inc., priority 2011, dated 2014) one finds IC50 and MIC data, which are given here for 16 compounds.

The structures appear in SMILES notation. Values after ≈ are worked out from the molar mass of the structure shown.

In assay [1] the target is T1, Pseudomonas aeruginosa LpxC enzyme (Pseudomonas aeruginosa, UniProt P47205).
T1 construct: made in house; host or cells: E. coli
T1 sequence (P47205 1-303): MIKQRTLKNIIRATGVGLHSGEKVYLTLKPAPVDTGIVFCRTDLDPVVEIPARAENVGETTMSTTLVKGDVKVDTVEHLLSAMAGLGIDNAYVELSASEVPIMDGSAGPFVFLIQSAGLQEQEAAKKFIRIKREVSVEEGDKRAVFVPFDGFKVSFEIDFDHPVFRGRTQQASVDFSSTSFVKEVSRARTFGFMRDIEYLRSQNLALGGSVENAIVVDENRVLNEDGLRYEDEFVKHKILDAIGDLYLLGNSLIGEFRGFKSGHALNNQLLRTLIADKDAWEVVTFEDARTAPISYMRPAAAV
The experiment in a line: IC50 assay, LpxC enzyme from P. aeruginosa (PA LpxC enzyme IC50). The class given is biochemical. The note with it: Table 3; LpxC enzyme 0.1 nM, 25° C., 1 hour; read-out: PA:IC50. The procedure:
In order to assess the compounds biological activity, selected in vitro assays were conducted on selected compounds. One of the assays measured the compounds ability to disrupt the synthesis of lipopolysaccharide, LPS, which is a component of the outer membrane of Gram-negative bacteria. Disruption of this synthesis is lethal to the bacteria. The assay determined the compound's ability to inhibit LpxC, which is the first enzyme in the biosynthetic pathway for LPS (measured as IC50). Additionally, MICs (minimal inhibitory concentrations) were determined for several bacteria. The specific protocols are described below:
A) IC50 Assay, LpxC Enzyme from P. aeruginosa (Labeled as PA LpxC Enzyme IC50):
At the end of 1 hour, 5 ul of 1 N HCl was added to stop the enzyme reaction, the plates were centrifuged, and then processed with the BioTrove Rapidfire HTMS Mass Spectrometry System. A no-enzyme control was used in calculating the IC50 values from the percent conversion values.

Assay [2] deals with Acinetobacter baumannii/haemolyticus, multidrug-resistant clinical isolate (AB-3167). Kind of assay: MIC determination, AB-3167. The assay is classed as cell-based. As to conditions: Table 3, lower of duplicate values. As to the method:
(§1) The in vitro antibacterial activity of compounds described in the Examples was evaluated by minimum inhibitory concentration (MIC) testing according to Clinical and Laboratory Standards Institute (CLSI). See: Clinical and Laboratory Standards Institute. Methods for Dilution Antimicrobial Susceptibility Tests for Bacteria that Grow Aerobically; Approved Standard-Eighth Edition. CLSI document M7-A8 [ISBN 1-56238-689-1]. Clinical and Laboratory Standards Institute, 940 West Valley Road, Suite 1400, Wayne, Pa. 19087-1898 USA, 2006; also Clinical and Laboratory Standards Institute. Performance Standards for Antimicrobial Susceptibility Testing; Twentieth Informational Supplement. CLSI document M100-S20 [ISBN 1-56238-716-2]. Clinical and Laboratory Standards Institute.
(§2) The MIC determination is a standard laboratory method for evaluating the antibacterial activity of a compound. The MIC represents the lowest drug concentration that inhibits visible growth of bacteria following overnight incubation. […] Typically, the drug concentration range is broken down into 2-fold increments (e.g. 0.06 μg/mL, 0.12 μg/mL. 0.25 μg/mL, 0.50 μg/mL, 1.0 μg/mL, etc.) and the various drug concentrations are all individually incubated overnight with approximately the same number of bacteria. The MIC is then determined by visually inspecting the drug effect at each concentration, and identifying the lowest drug concentration that has inhibited bacterial growth as compared to the drug free control. Typically, bacteria continue to grow at drug concentrations lower than the MIC and don't grow at concentrations at and above the MIC.
(§3) The MIC values described in Table 2 and 3 below were derived from assays wherein each test compound was evaluated in duplicate. In cases where the duplicate values varied by 0-2-fold, the lower of the two values was reported below. Generally speaking, if the duplicate values varied by more than 2-fold, the assay was considered non-valid and was repeated until the variation between duplicate runs was ≦2-fold. In line with the CLSI guidelines referred to above, both control organisms and reference compounds were utilized in each MIC assay to provide proper quality control. MIC values generated with these control organisms and reference compounds were required to fall within a defined range for the assay to be considered valid and be included herein. Those skilled in the art will recognize that MIC values can and do vary from experiment to experiment. Generally speaking, it should be recognized that MIC values often vary +/−2-fold from experiment to experiment. While a single MIC is reported for each compound and each microorganism, the reader should not conclude that each compound was only tested once. Several of the compounds were subjected to multiple tests. The data reported in Tables 2 and 3 is reflective of the compounds relative activity and different MICs may have been generated on these occasions in line with the guidelines described above.
(§4) The following bacterial strains were used in these MIC determinations:
2) Acinetobacter baumannii/haemolyticus: Multidrug-resistant clinical isolate labeled as AB-3167 in Tables 2 and 3;

The subject of assay [3] is Escherichia coli EC-1: VOGEL, mouse virulent. The experiment in a line: MIC determination, EC-1. The assay is classed as cell-based. As to conditions: Escherichia coli, read-out: EC-1 (MIC), Table 3, lower of duplicate values. As to the method: as §1, §2, §3, §4
3) Escherichia coli EC-1: VOGEL, mouse virulent labeled as EC-1 in Tables 2 and 3;

Assay [4] relates to PA:UC12120. Kind of assay: MIC determination, PA:UC12120 (Table 3). The class given is cell-based, Pseudomonas aeruginosa. The note with it: Pseudomonas aeruginosa, UC12120, Table 3, lower of duplicate values. The procedure:
as §1, §2, §3
In Table 3 below, column 1 corresponds to the Example number, column 2 provides the IUPAC name, columns 3-6 provide in vitro biological data generated in the same manner as in Table 2, columns 7 and 8 provide the retention times and mass spectra generated via LCMS, using the method described below. All data is not currently available for all compounds, as indicated by a blank cell in Table 3.

One may read the IC50 as the point on the concentration scale where inhibition reaches its midpoint. As a reminder, the MIC is the lowest concentration that inhibits growth of the organism.

On to `CC(CCn1cc(F)c(-c2ccc3c(c2)C(=O)NC3)cc1=O)(C(=O)NO)S(C)(=O)=O` (stereo not shown) [Example 50, 4-[5-fluoro-2-oxo-4-(3-oxo-2,3-dihydro-1H-isoindol-5-yl)pyridin-1(2H)-yl]-N-hydroxy-2-methyl-2-(methylsulfonyl)butanamide], for which, in assay [1], the IC50 was determined as 68.2 nM. The MIC in assay [2], in assay [3] and in assay [4] was greater than 64 µg/mL in each case.
`CC(CCn1cc(F)c(-c2ccc3cn[nH]c3c2)cc1=O)(C(=O)NO)S(C)(=O)=O` (stereo not shown) [Example 51, 4-[5-fluoro-4-(1H-indazol-6-yl)-2-oxopyridin-1(2H)-yl]-N-hydroxy-2-methyl-2-(methylsulfonyl)butanamide]: the IC50 in assay [1] came to 3.9 nM. Moreover, the MIC in assay [2], in assay [3] and in assay [4] was greater than 64 µg/mL throughout.
Take `CNC(=O)c1ccc(-c2cc(=O)n(CCC(C)(C(=O)NO)S(C)(=O)=O)cc2F)cc1F` (stereo not shown) [Example 52, 2-fluoro-4-{5-fluoro-1-[4-(hydroxyamino)-3-methyl-3-(methylsulfonyl)-4-oxobutyl]-2-oxo-1,2-dihydropyridin-4-yl}-N-methylbenzamide]: in assay [1], the IC50 came out at 2.2 nM. For the same compound, the MIC was greater than 64 µg/mL in assay [2], 64 µg/mL (≈ 140 µM) in assay [3] and 32 µg/mL (≈ 70 µM) in assay [4].
Consider `CC(CCn1cc(F)c(-c2ccc(O)cc2)cc1=O)(C(=O)NO)S(C)(=O)=O` (stereo not shown) [Example 53, 4-[5-fluoro-4-(4-hydroxyphenyl)-2-oxopyridin-1(2H)-yl]-N-hydroxy-2-methyl-2-(methylsulfonyl)butanamide], for which the IC50 in assay [1] turned out to be 4.2 nM. Moreover, the MIC was greater than 64 µg/mL in assay [2], greater than 64 µg/mL in assay [3] and 64 µg/mL (≈ 161 µM) in assay [4].
In the case of `COc1ccc(OC)c(-c2cc(=O)n(CCC(C)(C(=O)NO)S(C)(=O)=O)cc2F)c1` (stereo not shown) [Example 54, 4-[4-(2,5-dimethoxyphenyl)-5-fluoro-2-oxopyridin-1(2H)-yl]-N-hydroxy-2-methyl-2-(methylsulfonyl)butanamide], the IC50 in assay [1] was greater than 100 nM. The MIC in assay [2], in assay [3] and in assay [4] was greater than 64 µg/mL throughout.
In the case of `CC(CCn1cc(F)c(-c2cncc(F)c2)cc1=O)(C(=O)NO)S(C)(=O)=O` (stereo not shown) [Example 55, 4-(5,5′-difluoro-2′-oxo-3,4′-bipyridin-1′(2′H)-yl)-N-hydroxy-2-methyl-2-(methylsulfonyl)butanamide], the concentration for half-maximal inhibition (IC50) in assay [1] is 66.8 nM. Besides, the MIC is greater than 64 µg/mL in assay [2], greater than 64 µg/mL in assay [3] and 64 µg/mL (≈ 159 µM) in assay [4].
As for `CC(CCn1cc(F)c(-c2cc(F)cc(Cl)c2)cc1=O)(C(=O)NO)S(C)(=O)=O` (stereo not shown) [Example 56, 4-[4-(3-chloro-5-fluorophenyl)-5-fluoro-2-oxopyridin-1(2H)-yl]-N-hydroxy-2-methyl-2-(methylsulfonyl)butanamide], the IC50 in assay [1] came out at 2 nM. Besides, the results for the MIC in assay [2], in assay [3] and in assay [4] were greater than 64 µg/mL, 8 µg/mL (≈ 18.4 µM) and 2 µg/mL (≈ 4.6 µM), respectively.
Take `CN1Cc2ccc(-c3cc(=O)n(CCC(C)(C(=O)NO)S(C)(=O)=O)cc3F)cc2C1=O` (stereo not shown) [Example 57, 4-[5-fluoro-4-(2-methyl-3-oxo-2,3-dihydro-1H-isoindol-5-yl)-2-oxopyridin-1(2H)-yl]-N-hydroxy-2-methyl-2-(methylsulfonyl)butanamide]: the IC50 in assay [1] was determined as 21 nM. Moreover, the MIC in assay [2], in assay [3] and in assay [4] was greater than 64 µg/mL throughout.
Take `CC(CCn1cc(F)c(-c2ccc(C#N)c(F)c2)cc1=O)(C(=O)NO)S(C)(=O)=O` (stereo not shown) [Example 58, 4-[4-(4-cyano-3-fluorophenyl)-5-fluoro-2-oxopyridin-1(2H)-yl]-N-hydroxy-2-methyl-2-(methylsulfonyl)butanamide]: the IC50 in assay [1] was determined as 2.6 nM. The MIC was greater than 64 µg/mL in assay [2], 32 µg/mL (≈ 75.2 µM) in assay [3] and 8 µg/mL (≈ 18.8 µM) in assay [4].
Regarding `COc1ccc(-c2cc(=O)n(CCC(C)(C(=O)NO)S(C)(=O)=O)cc2F)cc1` (stereo not shown) [Example 59, 4-[5-fluoro-4-(4-methoxyphenyl)-2-oxopyridin-1(2H)-yl]-N-hydroxy-2-methyl-2-(methylsulfonyl)butanamide], the IC50 in assay [1] stood at 1 nM. Besides, the MIC is greater than 64 µg/mL in assay [2], 1 µg/mL (≈ 2.42 µM) in assay [3] and 1 µg/mL (≈ 2.42 µM) in assay [4].
Consider `CC(C)(C#N)c1ccc(-c2cc(=O)n(CCC(C)(C(=O)NO)S(C)(=O)=O)cc2F)cc1` (stereo not shown) [Example 60, 4-{4-[4-(1-cyano-1-methylethyl)phenyl]-5-fluoro-2-oxopyridin-1(2H)-yl}-N-hydroxy-2-methyl-2-(methylsulfonyl)butanamide], for which, in assay [1], the IC50 is 3.9 nM. Besides, the MIC was greater than 64 µg/mL in assay [2], 32 µg/mL (≈ 71.2 µM) in assay [3] and 4 µg/mL (≈ 8.9 µM) in assay [4].
As for `CC(=O)Nc1cccc(-c2cc(=O)n(CCC(C)(C(=O)NO)S(C)(=O)=O)cc2F)c1` (stereo not shown) [Example 61, 4-[4-(3-acetamidophenyl)-5-fluoro-2-oxopyridin-1(2H)-yl]-N-hydroxy-2-methyl-2-(methylsulfonyl)butanamide], in assay [1], the IC50 is greater than 100 nM. Besides, the MIC in assay [2], in assay [3] and in assay [4] was greater than 64 µg/mL throughout.
`CC(CCn1cc(F)c(-c2ccc(F)c(CO)c2)cc1=O)(C(=O)NO)S(C)(=O)=O` (stereo not shown) [Example 105, 4-{5-fluoro-4-[4-fluoro-3-(hydroxymethyl)phenyl]-2-oxopyridin-1(2H)-yl}-N-hydroxy-2-methyl-2-(methylsulfonyl)butanamide]: the MIC in assay [2], in assay [3] and in assay [4] was greater than 64 µg/mL throughout.
In the case of `CC(CCn1cc(F)c(-c2cc[nH]n2)cc1=O)(C(=O)NO)S(C)(=O)=O` (stereo not shown) [Example 121, 4-[5-fluoro-2-oxo-4-(1H-pyrazol-3-yl)pyridin-1(2H)-yl]-N-hydroxy-2-methyl-2-(methylsulfonyl)butanamide], the MIC in assay [2], in assay [3] and in assay [4] was greater than 64 µg/mL each time.
As for `CC(CCn1cc(F)c(-c2cccc(CO)c2F)cc1=O)(C(=O)NO)S(C)(=O)=O` (stereo not shown) [Example 122, 4-{5-fluoro-4-[2-fluoro-3-(hydroxymethyl)phenyl]-2-oxopyridin-1(2H)-yl}-N-hydroxy-2-methyl-2-(methylsulfonyl)butanamide], in assay [1], the IC50 worked out at 2.4 nM.
On to `CC(CCn1cc(F)c(-c2cccc(CC(N)=O)c2)cc1=O)(C(=O)NO)S(C)(=O)=O` (stereo not shown) [Example 123, 4-{4-[3-(2-amino-2-oxoethyl)phenyl]-5-fluoro-2-oxopyridin-1(2H)-yl}-N-hydroxy-2-methyl-2-(methylsulfonyl)butanamide], for which the MIC in assay [2], in assay [3] and in assay [4] was greater than 64 µg/mL in each case.
